Entries after “also recorded” stand apart in the source; their conditions may differ. Like-named read-outs stand apart in the source and are kept apart here.

In general, Ki refers to a measure of affinity in units of concentration, obtained from inhibition or displacement.

The target in series [1] is T1, Arabidopsis thaliana HPPD (AtHPPD) (Arabidopsis thaliana, UniProt P93836).
T1 construct: made in house
T1 sequence (P93836 1-445): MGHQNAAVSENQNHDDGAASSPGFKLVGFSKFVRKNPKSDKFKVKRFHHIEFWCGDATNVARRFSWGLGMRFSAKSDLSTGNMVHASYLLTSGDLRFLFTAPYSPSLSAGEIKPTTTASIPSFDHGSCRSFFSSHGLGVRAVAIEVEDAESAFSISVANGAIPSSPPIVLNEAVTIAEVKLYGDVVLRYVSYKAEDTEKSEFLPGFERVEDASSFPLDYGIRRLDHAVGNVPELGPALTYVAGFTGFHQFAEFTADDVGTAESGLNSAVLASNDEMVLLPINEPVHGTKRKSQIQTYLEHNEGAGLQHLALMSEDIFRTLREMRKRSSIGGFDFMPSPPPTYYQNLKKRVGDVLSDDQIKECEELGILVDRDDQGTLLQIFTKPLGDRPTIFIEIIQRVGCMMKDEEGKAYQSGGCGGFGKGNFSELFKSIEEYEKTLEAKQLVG
Kind of series: AtHPPD enzyme inhibition study. Type of series: biochemical. As for the experimental part:
AtHPPD was prepared and puriﬁed according to the reported methods in the literature [19–2035–37].

In series [2] the test system is E. crus-galli, S. faberii, D. sanguinalis, A. retroflexus, E. prostrata, A. juncea. Kind of series: Post-emergence greenhouse herbicidal activity. Type of series: in vivo. Set-up: Sum of inhibition rate: scale not given here. To be noted: 150 g ai/ha; for Sum of inhibition rate / herbicidal activity (in words): post-emergence; for Sum of inhibition rate: sum over six weeds (AJ, AR, EP, DS, EC, SF), 18 days after treatment.

The subject of a further series is cotton. Kind of series: Postemergence crop safety, cotton. The format is in vivo. As to conditions: 150 g ai/ha, four-leaf stage, after 15 days. The procedure:
(§1) The representative crops, rice, wheat, maize, cotton, soybean, and canola were selected to test the crop safety of compound II3, II4, and II5. The six crops were separately planted in ﬂowerpots (12 cm diameter) containing the composite nutrient soil and grown at room temperature. When the crops had reached the four-leaf stage, the safety experiments were conducted at the rate of 150 g ai/ha. After 15 days, the ﬁnal results of crop safety were evaluated with two duplicates per experiment (Table 3).

A further series deals with maize. As to the kind of experiment: Postemergence crop safety, maize. Type of series: in vivo. To be noted: 150 g ai/ha; for % injury maize: postemergence, four-leaf stage, after 15 days. As for the experimental part: as §1
The test system of a further series is soybean. As to the kind of experiment: Postemergence crop safety, soybean. The format is in vivo. As to conditions: 150 g ai/ha, four-leaf stage, after 15 days. As for the experimental part:
as §1

The next series concerns rice. As to the kind of experiment: Postemergence crop safety, rice. Type of series: in vivo. To be noted: 150 g ai/ha, four-leaf stage, after 15 days. The procedure:
as §1

Another series has as its system canola. As to the kind of experiment: Postemergence crop safety, canola. The format is in vivo. To be noted: 150 g ai/ha, four-leaf stage, after 15 days. The procedure: as §1
Another series concerns wheat. As to the kind of experiment: Postemergence crop safety, wheat. Type of series: in vivo. As to conditions: 150 g ai/ha; for % injury wheat: postemergence, four-leaf stage, after 15 days. The procedure:
as §1

For `Cn1nc(C2CC2)c(C(=O)COc2ccccc2)c1O` [I1], in series [1] (read-out: AtHPPD inhibition Ki), the inhibition constant Ki came out at 1500 ± 31 nM. Besides, the “Sum of inhibition rate” value in series [2] is 60.
As to `Cn1nc(C(F)(F)F)c(C(=O)COc2ccccc2)c1O` [I2], the Ki in series [1] (read-out: AtHPPD inhibition Ki) was determined as 1300 ± 17 nM. For the same molecule, in series [2], the “Sum of inhibition rate” value worked out at 40.
On the same counts, the results for `Cn1nc(C2CC2)c(C(=O)COc2ccccc2Cl)c1O` [I3] are 360 ± 12 nM and 80.
For `Cn1nc(C(F)(F)F)c(C(=O)COc2ccccc2Cl)c1O` [I4] the same measures were 590 ± 43 nM and 40.
On the same counts, the results for `CC1(C)CC(=O)C(C(=O)COc2ccc(Cl)cc2)=C(O)C1` [I5] are 1000 ± 36 nM and 110.
In the case of `Cn1nc(C(F)(F)F)c(C(=O)COc2ccc(Cl)cc2)c1O` [I6], the Ki in series [1] (read-out: AtHPPD inhibition Ki) worked out at 930 ± 32 nM. Moreover, the “Sum of inhibition rate” value in series [2] stood at 180.
On to `Cn1nc(C2CC2)c(C(=O)COc2ccc(Cl)cc2Cl)c1O` [I7], for which the Ki in series [1] (read-out: AtHPPD inhibition Ki) came to 360 ± 12 nM. Also, the “Sum of inhibition rate” value in series [2] was 210.
As to `Cn1nc(C(F)(F)F)c(C(=O)COc2ccc(Cl)cc2Cl)c1O` [I8], the Ki in series [1] (read-out: AtHPPD inhibition Ki) stood at 220 ± 23 nM. In series [2], the “Sum of inhibition rate” value is given as 170.
For `CC1(C)CC(=O)C(C(=O)COc2c(Cl)cc(Cl)cc2Cl)=C(O)C1` [I9] the same measures were 310 ± 48 nM and 70.
On the same counts, the results for `Cc1nn(C)c(O)c1C(=O)COc1c(Cl)cc(Cl)cc1Cl` [I10] are 240 ± 3 nM and 60.
For `Cn1nc(C2CC2)c(C(=O)COc2c(Cl)cc(Cl)cc2Cl)c1O` [I11] the same measures were 81 ± 1 nM and 335.
On to `Cn1nc(C(F)(F)F)c(C(=O)COc2c(Cl)cc(Cl)cc2Cl)c1O` [I12], for which, in series [2], the “herbicidal activity (in words)” value is “poorer than expected herbicidal activity” and the “Sum of inhibition rate” value was 335.
With `CC1(C)CC(=O)C(C(=O)COc2ccccc2[N+](=O)[O-])=C(O)C1` [I13], the Ki in series [1] (read-out: AtHPPD inhibition Ki) is 450 ± 33 nM. Besides, in series [2], the “Sum of inhibition rate” value is 30.
On the same counts, the results for `Cc1nn(C)c(O)c1C(=O)COc1ccccc1[N+](=O)[O-]` [I14] are 210 ± 42 nM and 40.
On the same counts, the results for `Cn1nc(C2CC2)c(C(=O)COc2ccccc2[N+](=O)[O-])c1O` [I15] are 270 ± 4 nM and 40.
On to `Cn1nc(C(F)(F)F)c(C(=O)COc2ccccc2[N+](=O)[O-])c1O` [I16], for which the inhibition constant (Ki) in series [1] (read-out: AtHPPD inhibition Ki) is 440 ± 13 nM. Also, the “Sum of inhibition rate” value in series [2] turned out to be 10.
For `O=C1CCCC(O)=C1C(=O)COc1ccc([N+](=O)[O-])cc1` [I17] the same measures were 230 ± 4 nM and 80.
On the same counts, the results for `CC1(C)CC(=O)C(C(=O)COc2ccc([N+](=O)[O-])cc2)=C(O)C1` [I18] are 930 ± 6 nM and 70.
Regarding `Cc1nn(C)c(O)c1C(=O)COc1ccc([N+](=O)[O-])cc1` [I19], in series [1] (read-out: AtHPPD inhibition Ki), the Ki is 630 ± 2 nM. In series [2], the “Sum of inhibition rate” value was determined as 100.
On the same counts, the results for `Cn1nc(C2CC2)c(C(=O)COc2ccc([N+](=O)[O-])cc2)c1O` [I20] are 500 ± 3 nM and 60.
On the same counts, the results for `Cn1nc(C(F)(F)F)c(C(=O)COc2ccc([N+](=O)[O-])cc2)c1O` [I21] are 1500 ± 41 nM and 100.
For `CC1(C)CC(=O)C(C(=O)COc2ccc([N+](=O)[O-])cc2Cl)=C(O)C1` [I22] the same measures were 1020 ± 9 nM and 70.
In the case of `Cc1nn(C)c(O)c1C(=O)COc1ccc([N+](=O)[O-])cc1Cl` [I23], the inhibitory constant (Ki) in series [1] (read-out: AtHPPD inhibition Ki) came out at 12 ± 9 nM. In addition, the “Sum of inhibition rate” value in series [2] is on record as 80.
For `Cn1nc(C2CC2)c(C(=O)COc2ccc([N+](=O)[O-])cc2Cl)c1O` [I24] the same measures were 260 ± 12 nM and 110.
For `Cn1nc(C(F)(F)F)c(C(=O)COc2ccc([N+](=O)[O-])cc2Cl)c1O` [I25] the same measures were 210 ± 43 nM and 100.
For `O=C1CCCC(O)=C1C(=O)COc1cc(Cl)ccc1Oc1ccc(Cl)cc1Cl` [I26] the same measures were 1900 ± 1 nM and 30.
In the case of `Cc1ccc(OCC(=O)C2=C(O)CCCC2=O)c(C)c1` [I30], in series [1] (read-out: AtHPPD inhibition Ki), the Ki was determined as 2200 ± 34 nM. For the same molecule, in series [2], the “Sum of inhibition rate” value stood at 40.
For `Cc1ccc(OCC(=O)C2=C(O)CC(C)(C)CC2=O)c(C)c1` [I31] the same measures were 3100 ± 340 nM and 20.
For `Cc1ccc(OCC(=O)c2c(C)nn(C)c2O)c(C)c1` [I32] the same measures were 2000 ± 9 nM and 30.
For `Cc1ccc(OCC(=O)c2c(C3CC3)nn(C)c2O)c(C)c1` [I33] the same measures were 2800 ± 45 nM and 30.
Turning to `Cc1ccc(OCC(=O)c2c(C(F)(F)F)nn(C)c2O)c(C)c1` [I34], in series [1] (read-out: AtHPPD inhibition Ki), the inhibitory constant (Ki) came to 2800 ± 670 nM. Moreover, the “Sum of inhibition rate” value in series [2] amounted to 30.
In series [1], `COc1cc(C)ccc1OCC(=O)C1=C(O)CCCC1=O` [I35] returned an inhibition constant Ki of 3300 ± 140 nM. For the same molecule, the “Sum of inhibition rate” value in series [2] stood at 40.
On the same counts, the results for `COc1cc(C)ccc1OCC(=O)C1=C(O)CC(C)(C)CC1=O` [I36] are 3400 ± 210 nM and 20.
In series [1], `COc1cc(C)ccc1OCC(=O)c1c(C)nn(C)c1O` [I37] gave a Ki of 2700 ± 530 nM. Also, the “Sum of inhibition rate” value in series [2] is 40.
For `COc1cc(C)ccc1OCC(=O)c1c(C2CC2)nn(C)c1O` [I38] the same measures were 2900 ± 38 nM and 50.
With `O=C1CCCC(O)=C1C(=O)COc1ccccc1` [I39], in series [1] (read-out: AtHPPD inhibition Ki), the Ki came to 1300 ± 56 nM. The “Sum of inhibition rate” value in series [2] came out at 40.
On the same counts, the results for `Cc1nn(C)c(O)c1C(=O)COc1ccccc1` [I40] are 1200 ± 31 nM and 50.
`O=C1CCCC(O)=C1C(=O)COc1nc(Cl)c(Cl)cc1Cl` [II1]: the inhibition constant (Ki) in series [1] (read-out: AtHPPD inhibition Ki) stood at 93 ± 7 nM. The “Sum of inhibition rate” value in series [2] stood at 50.
For `CC1(C)CC(=O)C(C(=O)COc2nc(Cl)c(Cl)cc2Cl)=C(O)C1` [II2], in series [1] (read-out: AtHPPD inhibition Ki), the inhibition constant (Ki) amounted to 97 ± 10 nM. Moreover, the “Sum of inhibition rate” value in series [2] worked out at 20.
With `Cc1nn(C)c(O)c1C(=O)COc1nc(Cl)c(Cl)cc1Cl` [II3], the Ki in series [1] (read-out: AtHPPD inhibition Ki) is 21 ± 4 nM. In addition, in the series on cotton, the “% injury cotton” value amounted to 60%. In the series with maize, the “crop tolerance / safety of maize (in words)” value is recorded as “high tolerance” and the “% injury maize” value came out at 10%. In series [2], the “herbicidal activity (in words)” value was “broad-spectrum herbicidal activities; also recorded: excellent herbicidal activities” and the “Sum of inhibition rate” value is 415. For the same molecule, in the series on soybean, the “% injury soybean” value came out at 50%. Further, in the series on rice, the “% injury rice” value is 40%. Moreover, the “% injury canola” value in the series with canola worked out at 90%. Also, in the series on wheat, the “crop tolerance of wheat (in words)” value is recorded as “high tolerance” and the “% injury wheat” value is recorded as 10%.
In turn, `Cn1nc(C2CC2)c(C(=O)COc2nc(Cl)c(Cl)cc2Cl)c1O` [II4] returned an inhibition constant (Ki) in series [1] of 23 ± 6 nM. Also, the “% injury cotton” value in the series with cotton turned out to be 60%. In the series on maize, the “crop tolerance / safety of maize (in words)” value is given as “safe for weed control in maize fields; also recorded: tolerance; also recorded: safe for use on maize” and the “% injury maize” value is reported as 10%. In series [2], the “herbicidal activity (in words)” value is given as “broad-spectrum herbicidal activities; also recorded: slightly higher herbicidal activity than mesotrione; also recorded: excellent herbicidal activities” and the “Sum of inhibition rate” value turned out to be 520. The “herbicidal activity for pre-emergence treatment (in words)” value in series [2] (pre-emergence treatment as printed in the abstract) is reported as “slightly better than that of mesotrione”. Besides, the “% injury soybean” value in the series with soybean was 30%. Besides, the “% injury rice” value with rice was determined as 30%. Further, the “% injury canola” value in the series on canola is reported as 100%. Besides, in the series with wheat, the “% injury wheat” value is 50%.
`Cn1nc(C(F)(F)F)c(C(=O)COc2ccc3ccccc3c2Br)c1O` [III4]: the inhibition constant (Ki) in series [1] (read-out: AtHPPD inhibition Ki) is 2000 ± 12 nM. For the same molecule, in series [2], the “Sum of inhibition rate” value came to 90.
For the molecule `O=C1CCCC(O)=C1C(=O)COc1cccnc1[N+](=O)[O-]` [III5], the inhibition constant Ki in series [1] (read-out: AtHPPD inhibition Ki) amounted to 230 ± 11 nM. For the same molecule, in series [2], the “Sum of inhibition rate” value is on record as 50.
For `Cn1nc(C2CC2)c(C(=O)COc2cccnc2[N+](=O)[O-])c1O` [III6] the same measures were 210 ± 42 nM and 60.

The record behind these values is paper PMC7059547, “Synthesis and herbicidal activities of aryloxyacetic acid derivatives as HPPD inhibitors” (Beilstein Journal of Organic Chemistry, 2020).
